Source: paper PMC11480511 (Scientific Reports, 2024)
In brackets after ≈: the same amount, converted by molar mass. Where two headings read alike, the source gives them in different places.

Legend:
SK-MEL-28 = assay: NCI single-dose growth inhibition screen; type: cell-based; settings: Homo sapiens; Melanoma SK-MEL-28; single dose 10^−5 M
HOP-92 = assay: NCI single-dose growth inhibition screen; type: cell-based; settings: Homo sapiens; Non-Small Cell Lung Cancer HOP-92; single dose 10^−5 M
UACC-62 = assay: NCI single-dose growth inhibition screen; type: cell-based; settings: Homo sapiens; Melanoma UACC-62; single dose 10^−5 M
SNB-75 = assay: NCI single-dose growth inhibition screen; type: cell-based, human; settings: single dose 10^−5 M; for inhibition at 10 µM: Homo sapiens, SNB-75, CNS Cancer SNB-75
TK-10 = assay: NCI single-dose growth inhibition screen; type: cell-based; settings: Homo sapiens; Renal Cancer TK-10; single dose 10^−5 M
786-0 = assay: NCI single-dose growth inhibition screen; type: cell-based; settings: Homo sapiens; Renal Cancer 786-0; single dose 10^−5 M
SNB-19 = assay: NCI single-dose growth inhibition screen; type: cell-based; settings: Homo sapiens; CNS Cancer SNB-19; single dose 10^−5 M
topoisomerase IIβ = target: T1, topoisomerase IIβ (Homo sapiens, UniProt Q02880); assay: Topoisomerase II inhibition, human DNA topoisomerase Elisa kit; type: biochemical; settings: ± SEM; read-out: Topoisomerase II IC50 µM ± SEM
T1 construct: purchased
Description: Two folds of serial dilution was accomplished after standards and the tested compounds were dissolved in sample diluent. Horseradish peroxidase (HRP-avidin) and biotin-conjugated antibody were diluted 10 times each. Each well received 100 µL of each concentration of the standard or test chemicals, which were then added and incubated at 37 °C for 60 min. […] The microtiter plate was rinsed three times and given room to aspirate. After that, the plate was incubated at 37 °C for 60 min with 100 µL of HRP-avidin solution added to each well. After that, the plate was aspirated and cleaned 5 times. Each well received 90 µL of TMB substrate, and the plate was incubated for 30 min. at 37 °C in a light-protected environment. Finally, stop solution (50 µL) was loaded, and within 5 min, the absorbance at 450 nm was measured spectrophotometrically.
Topoisomerase enzyme assay
Topoisomerase I and II inhibitory activity […]
topoisomerase IIβ inhibitory activity utilizing the human DNA topoisomerase Elisa kit.
Standards and the tested compound were dissolved in sample diluent and 2 folds serial dilution was achieved. Biotin-conjugated antibody and avidin conjugated Horseradish Peroxidase (HRP-avidin) were diluted to 10 folds. 100 μL of each concentration of standard or test compound were added to each well. Incubate at 37 °C for 1 h. The liquid in each well was removed. 10 0 μL of Biotin-conjugated antibody solution was added to each well followed by incubation for 1 h at 37 °C. The microtiter plate was allowed to aspirate and washed 3 times. 100 μL of avidin conjugated Horseradish Peroxidase (HRP -avidin) solution was added to each well and the plate was incubated for 1 h at 37 °C. The plate was aspirated and washed 5 times. 90 μL of TMB substrate were added to each well and the plate was incubated for 30 min at 37 °C and protected from light. 50 μL stop so lution was added. The absorbance was measured spectrophotometrically within 5 min at 450 nm .

SK-MEL-2 = assay: NCI single-dose growth inhibition screen; type: cell-based; settings: Homo sapiens; Melanoma SK-MEL-2; single dose 10^−5 M
[1] = test system: K. pneumoniae ATCC 10,031; assay: Antibacterial screening, agar cup diffusion method; type: cell-based; settings: read-out: Minimum inhibitory concentrations (MIC, µM) K. pneumoniae ATCC 10,031
Description: (§1) Anti-bacterial activity of the recently synthesized compounds 3a-k was evaluated at AUMC (Assiut University Mycological Centre), Assiut, Egypt. Assays were done against Gram-negative strains of K. pneumoniae (ATCC 100310, E. coli (ATCC 25922), Pseudomonas aeruginosa (ATCC 27853) and the Gram-positive S. aureus (ATCC 6538) strain utilizing standard agar cup diffusion method. The isolates from the four bacterial species examined were kept in TSB (Trypticase Soya Broth, Becton and Dickinson) with 10% glycerol at -70 °C and then subcultured on TSA (Trypticase Soya Agar, Becton and Dickinson) and TSB for 24 h at 37 °C former to inoculation. Bacterial isolates were then plated on sterile petri plates with 1 × 10^8 CFU/mL (0.5 McFarland turbidity) and 20 mL of Mueller Hinton Agar media (Oxoid) was then loaded. To ensure that the microorganisms were evenly dispersed, the plates were gently rotated before being left to harden on a level surface. Four equally spaced spherical-shaped wells (10 mm diameter) were painstakingly drilled using a sterilized cork bore after media solidification. All tested compounds under test underwent two-fold serial dilutions in a sequential manner. Three replications of 100 µL of each concentration were added to a well using a micropipette. Plates were then incubated for 24-hour at 37 °C. The average of the inhibition zones was then calculated. To determine the MICs, the natural logarithm of each diluted test substance’s concentration was plotted against the average area of the related inhibition zone. Following that, a regression line was created and the intercept on the ‘ln concentration” axis was determined, and the antilogarithm was calculated to indicate the MIC value[34],[63].

MCF7 = assay: NCI single-dose growth inhibition screen; type: cell-based, human; settings: single dose 10^−5 M; for Growth Inhibition (%): Breast Cancer MCF7; for inhibition at 10 µM: Homo sapiens, MCF7, Breast Cancer MCF7
CCRF-CEM = assay: NCI single-dose growth inhibition screen; type: cell-based; settings: Homo sapiens; Leukemia CCRF-CEM; single dose 10^−5 M
NCI-H23 = assay: NCI single-dose growth inhibition screen; type: cell-based; settings: Homo sapiens; Non-Small Cell Lung Cancer NCI-H23; single dose 10^−5 M
HCT-116 = assay: NCI single-dose growth inhibition screen; type: cell-based; settings: Homo sapiens; Colon Cancer HCT-116; single dose 10^−5 M
K-562 = assay: NCI single-dose growth inhibition screen; type: cell-based; settings: Homo sapiens, K562; Leukemia K-562; single dose 10^−5 M
SN12C = assay: NCI single-dose growth inhibition screen; type: cell-based; settings: Homo sapiens; Renal Cancer SN12C; single dose 10^−5 M
A498 = assay: NCI single-dose growth inhibition screen; type: cell-based, human; settings: single dose 10^−5 M; for inhibition at 10 µM: Homo sapiens, A498, Renal Cancer A498; for Growth Inhibition (%): Renal Cancer A498
HL-60(TB) = assay: NCI single-dose growth inhibition screen; type: cell-based; settings: Homo sapiens; Leukemia HL-60(TB); single dose 10^−5 M
MDA-MB-468 = assay: NCI single-dose growth inhibition screen; type: cell-based; settings: Homo sapiens; Breast Cancer MDA-MB-468; single dose 10^−5 M
OVCAR-4 = assay: NCI single-dose growth inhibition screen; type: cell-based; settings: Homo sapiens; Ovarian Cancer OVCAR-4; single dose 10^−5 M
S. aureus ATCC 6538 = assay: Antibacterial screening, agar cup diffusion method; type: cell-based; settings: Gram + ve strain; for MIC: Staphylococcus aureus, ATCC6538, read-out: Minimum inhibitory concentrations (MIC, µM) S. aureus ATCC 6538
Description: as §1

HOP-62 = assay: NCI single-dose growth inhibition screen; type: cell-based; settings: Homo sapiens; Non-Small Cell Lung Cancer HOP-62; single dose 10^−5 M
[2] = Klebsiella pneumoniae, ATCC10, Gram –ve strain

T1 sequence (Q02880 whole entry): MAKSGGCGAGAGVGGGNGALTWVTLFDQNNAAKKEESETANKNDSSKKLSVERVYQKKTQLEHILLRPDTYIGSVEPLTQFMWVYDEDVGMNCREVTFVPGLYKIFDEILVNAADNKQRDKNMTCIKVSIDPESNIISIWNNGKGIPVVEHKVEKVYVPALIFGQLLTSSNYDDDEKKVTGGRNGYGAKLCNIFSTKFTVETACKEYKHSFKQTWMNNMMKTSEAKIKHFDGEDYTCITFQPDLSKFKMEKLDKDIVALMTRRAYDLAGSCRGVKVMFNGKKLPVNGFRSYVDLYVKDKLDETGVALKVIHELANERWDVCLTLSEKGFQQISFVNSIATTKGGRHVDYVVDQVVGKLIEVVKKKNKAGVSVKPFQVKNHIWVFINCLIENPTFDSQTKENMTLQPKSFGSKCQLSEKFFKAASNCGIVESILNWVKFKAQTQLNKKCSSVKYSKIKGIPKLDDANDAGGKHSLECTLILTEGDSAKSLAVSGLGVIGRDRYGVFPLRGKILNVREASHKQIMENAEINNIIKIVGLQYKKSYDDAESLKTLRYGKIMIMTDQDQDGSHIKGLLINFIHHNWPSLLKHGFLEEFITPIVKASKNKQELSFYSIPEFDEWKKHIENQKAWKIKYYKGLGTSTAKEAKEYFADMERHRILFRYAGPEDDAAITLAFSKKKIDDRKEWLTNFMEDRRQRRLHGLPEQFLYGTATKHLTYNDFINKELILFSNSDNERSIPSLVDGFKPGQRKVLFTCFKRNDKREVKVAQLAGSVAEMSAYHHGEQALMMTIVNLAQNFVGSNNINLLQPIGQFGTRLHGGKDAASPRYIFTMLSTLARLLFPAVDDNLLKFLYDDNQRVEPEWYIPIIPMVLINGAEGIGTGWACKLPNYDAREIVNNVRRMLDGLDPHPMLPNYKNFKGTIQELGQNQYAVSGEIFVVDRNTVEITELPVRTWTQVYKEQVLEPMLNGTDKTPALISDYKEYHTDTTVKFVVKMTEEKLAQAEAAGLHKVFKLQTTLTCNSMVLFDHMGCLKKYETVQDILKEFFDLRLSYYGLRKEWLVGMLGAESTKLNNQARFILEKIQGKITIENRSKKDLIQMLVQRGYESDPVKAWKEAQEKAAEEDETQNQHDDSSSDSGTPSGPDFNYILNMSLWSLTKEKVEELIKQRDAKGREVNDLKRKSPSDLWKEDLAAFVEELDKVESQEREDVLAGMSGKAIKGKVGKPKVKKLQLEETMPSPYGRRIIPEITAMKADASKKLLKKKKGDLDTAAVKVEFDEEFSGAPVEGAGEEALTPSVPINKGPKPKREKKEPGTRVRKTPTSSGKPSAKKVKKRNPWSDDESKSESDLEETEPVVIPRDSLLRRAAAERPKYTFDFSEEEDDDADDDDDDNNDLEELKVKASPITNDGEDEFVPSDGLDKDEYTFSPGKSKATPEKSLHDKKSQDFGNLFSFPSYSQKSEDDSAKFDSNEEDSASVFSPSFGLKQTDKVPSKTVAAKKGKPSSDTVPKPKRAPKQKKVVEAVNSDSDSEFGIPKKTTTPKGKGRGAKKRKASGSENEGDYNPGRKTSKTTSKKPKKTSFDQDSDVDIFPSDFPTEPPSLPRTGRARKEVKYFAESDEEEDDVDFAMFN

SMILES | inhibition at 10 µM (SK-MEL-28) | inhibition at 10 µM (HOP-92) | inhibition at 10 µM (UACC-62) | inhibition at 10 µM (SNB-75) | inhibition at 10 µM (TK-10) | inhibition at 10 µM (786-0) | inhibition at 10 µM (SNB-19) | IC50 (topoisomerase IIβ) | inhibition at 10 µM (SK-MEL-2) | MIC [1, 2] | inhibition at 10 µM (MCF7) | inhibition at 10 µM (NCI-H23) | inhibition at 10 µM (HCT-116) | inhibition at 10 µM (K-562) | inhibition at 10 µM (SN12C) | inhibition at 10 µM (A498) | inhibition at 10 µM (HL-60(TB)) | inhibition at 10 µM (MDA-MB-468) | inhibition at 10 µM (OVCAR-4) | MIC (S. aureus ATCC 6538) | also measured
O=C(O)c1cn(C2CC2)c2cc(N3CCN(C(=O)CCCN4C(=O)SC(=Cc5cccc6ccccc56)C4=O)CC3)c(F)cc2c1=O [3j, 1-cyclopropyl-6-fluoro-7-[4-[4-[5-(1-naphthylmethylene)-2,4-dioxo-thiazolidin-3-yl]butanoyl]piperazin-1-yl]-4-oxo-quinoline-3-carboxylic acid] | 4.5% | 13.3% | 20.4% | 28.4% | < 0% | 18.5% | 20.1% | 39.8 ± 2.17 µM | < 0% | > 20 µM | 41.7% | 13.1% | 10.6% | 10.9% | 24.1% | 50.9% | < 0% | 4.7% | 16.4% | > 20 µM | Growth Inhibition (%) (MCF7): 41.7%; inhibition at 10 µM (CCRF-CEM): < 0%; Growth Inhibition (%) (A498): 50.9%; inhibition at 10 µM (HOP-62): 15.1%
O=C(O)c1cn(C2CC2)c2cc(N3CCN(C(=O)CCCN4C(=O)S/C(=C\c5ccc(F)cc5)C4=O)CC3)c(F)cc2c1=O [3i] | 1.5% | 5.7% | 19.3% | 16.5% | 4.7% | 18.2% | 6.2% | 15 ± 0.81 µM | < 0% | > 20 µM | 1.3% | 6.5% | 4.5% | < 0% | 2.2% | 41.5% | < 0% | 7.6% | 0.5% | > 20 µM | inhibition at 10 µM (CCRF-CEM): 4.2%; Growth Inhibition (%) (A498): 41.5%; Minimum inhibitory concentrations (MIC, µM) S. aureus ATCC 6538 (S. aureus ATCC 6538): did not show considerable anti-bacterial activity; inhibition at 10 µM (HOP-62): 2.9%
O=C(O)c1cn(C2CC2)c2cc(N3CCN(C(=O)CCCN4C(=O)CSC4=O)CC3)c(F)cc2c1=O [3 L, 1-Cyclopropyl-7-(4-(4-(2,4-dioxothiazolidin-3-yl)butanoyl)piperazin-1-yl)-6-fluoro-4-oxo-1,4-dihydroquinoline-3-carboxylic acid] | 49.5% | 0.7% | 8.4% | 51.1% | 28.7% | 4.8% | 0% | 14.3 ± 0.78 µM | < 0% | > 20 µM | < 0% | 5.7% | < 0% | < 0% | 14.6% | 45.1% | < 0% | 2.1% | 19.2% | > 20 µM | Growth Inhibition (%) (SNB-75; CNS Cancer SNB-75): 51.1%; Growth Inhibition (%) (A498): 45.1%; inhibition at 10 µM (HOP-62): 16.8%
O=C(O)c1cn(C2CC2)c2cc(N3CCN(C(=O)CCCN4C(=O)SC(=Cc5ccccc5)C4=O)CC3)c(F)cc2c1=O [3a, 7-[4-[4-[5-benzylidene-2,4-dioxo-thiazolidin-3-yl]butanoyl]piperazin-1-yl]-1-cyclopropyl-6-fluoro-4-oxo-quinoline-3-carboxylic acid] | 9% | < 0% | 28.6% | 29.1% | < 0% | 21.2% | 9.8% | 35.6 ± 1.94 µM | 10.1% | 0.13 to 0.8 µM (≈ 0.0786 to 0.484 µg/mL) | 55.9% | 10.2% | 19.3% | 22.5% | 2.6% | 41.4% | < 0% | 12.9% | 2.5% | > 20 µM | MIC ([1]; Gram –ve strain): 0.22 µM (≈ 0.133 µg/mL); Growth Inhibition (%) (MCF7): 55.9%; inhibition at 10 µM (CCRF-CEM): 9.8%; inhibition at 10 µM (HOP-62): < 0%
